Assay [1] has as its system EBC-1 lung cancer cell line. Nature of the assay: High-throughput screening, CellTiter-Glo cell viability assay at 100 nM. The class given is cell-based, human. The conditions noted are these: Homo sapiens, EBC-1, HTS, compounds at 100 nM, 72 h, read-out: cytotoxicity expressed in IC50, EBC-1 (results of High throughput screening). The protocol:
(§1) EBC-1 (obtained from JRCB, https://cellbank.nibiohn.go.jp/english/) and H2228 (obtained from ATCC https://www.lgcstandards-atcc.org/) cell lines were maintained according to the instructions provided by JRCB and ATCC in a 5% CO2 humidified incubator maintained at 37° C. temperature. Effect of compounds on cell viability was measured via CellTiter-Glo® luminescent cell viability assay (Promega, Madison, WI, USA). Cells were plated at 1000 cells/well onto a flat-bottomed, white 96 well plate (BRANDplates, cat. no.: 781965). After 24 h, cells were treated for 72 h with the compounds at 100 nM concentration. After the treatment, medium was removed and CellTiter-Glo® reagent was added. Untreated cells were used as control. The luminescence signal was recorded using a microplate reader (BioTek Synergy 2 Multi-Mode Reader, BioTek, Winooski, VT, USA). Cell viability data (% of untreated control cells) was evaluated with Microsoft Excel.

Assay [2] has as its system H2228 lung cancer cell line. The description is as above. The class given is cell-based, human. The conditions noted are these: Homo sapiens, NCI-H2228, HTS, compounds at 100 nM, 72 h, read-out: cytotoxicity expressed in IC50, H2228 (results of High throughput screening). The protocol: as §1

This is an account of results in patent US20230295162A1 (EÖTVÖS LORÁND TUDOMÁNYEGYETEM, priority 2020, published 2023).

In the case of `O=C1C2=C(CCN(Cc3cccc(F)c3)C2)N2CCN=C2N1Cc1ccc(Br)cc1` [I/4, reference compound], the IC50 in assay [1] and in assay [2] was under 0.1 µM in each case.

For `Cc1ccccc1CN1C(=O)C2=C(CCN(Cc3ccc(F)cc3C(F)(F)F)C2)N2CCN=C12` [I/12], the IC50 in assay [1] and in assay [2] was over 0.1 µM throughout.

Take `Cc1ccccc1CN1C(=O)C2=C(CCN(Cc3cccc(C(F)(F)F)c3)C2)N2CCN=C12` [I/13]: the IC50 in assay [1] and in assay [2] was over 0.1 µM each time.

With `Cc1ccccc1CN1C(=O)C2=C(CCN(Cc3ccc(F)c(F)c3)C2)N2CCN=C12` [I/14], the IC50 in assay [1] and in assay [2] was over 0.1 µM each time.

As to `O=C1C2=C(CCN(Cc3cccc(C(F)(F)F)c3)C2)N2CCN=C2N1Cc1ccc(I)cc1` [I/15A], the IC50 in assay [1] and in assay [2] was over 0.1 µM each time.

In the case of `Cc1ccccc1CN1C(=O)C2=C(CCN(Cc3cc(C(F)(F)F)cc(C(F)(F)F)c3)C2)N2CCN=C12` [I/15], the half-maximal inhibitory concentration (IC50) in assay [1] and in assay [2] was over 0.1 µM each time.

`O=C1C2=C(CCN(Cc3cc(C(F)(F)F)cc(C(F)(F)F)c3)C2)N2CCN=C2N1Cc1ccc(I)cc1` [I/16]: the IC50 in assay [1] and in assay [2] was over 0.1 µM in each case.

For the compound `O=C1C2=C(CCN(Cc3ccc(F)c(F)c3)C2)N2CCN=C2N1Cc1ccc(I)cc1` [I/17], the IC50 in assay [1] and in assay [2] was over 0.1 µM in each case.

Turning to `O=C1C2=C(CCN(Cc3ccc(F)c(F)c3F)C2)N2CCN=C2N1Cc1ccc(I)cc1` [I/18], the IC50 in assay [1] and in assay [2] was over 0.1 µM in each case.

Take `O=C1C2=C(CCN(Cc3cc(F)c(F)c(F)c3)C2)N2CCN=C2N1Cc1ccc(I)cc1` [I/19]: the IC50 in assay [1] and in assay [2] was over 0.1 µM in each case.

For the compound `O=C1C2=C(CCN(Cc3cc(C(F)(F)F)cc(C(F)(F)F)c3)C2)N2CCN=C2N1Cc1ccc(C(F)(F)F)cc1` [I/21], the IC50 in assay [1] and in assay [2] was over 0.1 µM in each case.

`O=C1C2=C(CCN(Cc3cc(C(F)(F)F)cc(C(F)(F)F)c3)C2)N2CCN=C2N1Cc1ccc(C(F)(F)F)c(F)c1` [I/22]: the IC50 in assay [1] and in assay [2] was over 0.1 µM throughout.

In the case of `O=C1C2=C(CCN(Cc3ccc(F)c(F)c3)C2)N2CCN=C2N1Cc1ccc(F)cc1` [I/23], the IC50 in assay [1] and in assay [2] was over 0.1 µM throughout.

With `O=C1C2=C(CCN(Cc3cc(C(F)(F)F)cc(C(F)(F)F)c3)C2)N2CCN=C2N1Cc1ccc(F)cc1` [I/24], the IC50 in assay [1] and in assay [2] was over 0.1 µM in each case.

With `O=C1C2=C(CCN(Cc3cc(F)c(F)c(F)c3)C2)N2CCN=C2N1Cc1ccc(F)cc1` [I/25], the IC50 in assay [1] and in assay [2] was over 0.1 µM each time.

On to `O=C1C2=C(CCN(Cc3cccc(C(F)(F)F)c3)C2)N2CCN=C2N1Cc1ccc(F)cc1` [I/32], for which the IC50 in assay [1] and in assay [2] was over 0.1 µM throughout.

With `O=C1C2=C(CCN(Cc3cccc(C(F)(F)F)c3)C2)N2CCN=C2N1Cc1ccc(C(F)(F)F)c(F)c1` [I/33], the IC50 in assay [1] and in assay [2] was over 0.1 µM in each case.

As for `O=C1C2=C(CCN(Cc3ccc(F)c(F)c3F)C2)N2CCN=C2N1Cc1ccc(F)cc1` [I/34], the IC50 in assay [1] and in assay [2] was over 0.1 µM each time.

For the compound `O=C1C2=C(CCN(Cc3cc(F)cc(F)c3)C2)N2CCN=C2N1Cc1ccc(I)cc1` [I/38], the IC50 in assay [1] and in assay [2] was under 0.1 µM in each case.

Take `O=C1C2=C(CCN(Cc3ccccc3)C2)N2CCN=C2N1Cc1ccc(Br)cc1` [I/41]: the IC50 in assay [1] was over 0.1 µM; in assay [2] it was under 0.1 µM.

Turning to `O=C1C2=C(CCN(Cc3cccc(F)c3)C2)N2CCN=C2N1Cc1ccc([N+](=O)[O-])cc1F` [I/49], the IC50 in assay [1] and in assay [2] was under 0.1 µM each time.

Regarding `O=C1C2=C(CCN(Cc3cc(F)cc(F)c3)C2)N2CCN=C2N1Cc1ccc([N+](=O)[O-])cc1F` [I/50], the IC50 in assay [1] and in assay [2] was under 0.1 µM throughout.

On to `COc1cc(CN2C(=O)C3=C(CCN(Cc4ccccc4)C3)N3CCN=C23)cc(OC)c1OC` [I/51], for which the IC50 in assay [1] and in assay [2] was over 0.1 µM in each case.

Turning to `O=C1C2=C(CCN(Cc3ccccc3)C2)N2CCN=C2N1Cc1cccc(I)c1` [I/56], the IC50 in assay [1] and in assay [2] was over 0.1 µM each time.

For the compound `COc1cc(CN2C(=O)C3=C(CCN(Cc4cccc(F)c4)C3)N3CCN=C23)cc(OC)c1OC` [I/57], the IC50 in assay [1] and in assay [2] was over 0.1 µM in each case.

Take `NCc1ccc(CN2C(=O)C3=C(CCN(Cc4ccccc4)C3)N3CCN=C23)cc1` [I/62]: the IC50 in assay [1] and in assay [2] was over 0.1 µM throughout.

Take `NCc1cccc(CN2CCC3=C(C2)C(=O)N(Cc2ccc(C(F)(F)F)cc2)C2=NCCN23)c1` [I/69]: the IC50 in assay [1] and in assay [2] was over 0.1 µM throughout.

For the compound `Cc1ccccc1CN1C(=O)C2=C(CCN(Cc3ccc(N)cc3)C2)N2CCN=C12` [I/74], the IC50 in assay [1] and in assay [2] was over 0.1 µM in each case.

In the case of `Nc1cccc(CN2C(=O)C3=C(CCN(Cc4cccc(F)c4)C3)N3CCN=C23)c1` [I/76], the IC50 in assay [1] and in assay [2] was over 0.1 µM each time.

As for `Cc1ccccc1CN1C(=O)C2=C(CCN(Cc3cccc(N)c3)C2)N2CCN=C12` [I/77], the IC50 in assay [1] and in assay [2] was over 0.1 µM in each case.

Take `Nc1cccc(CN2CCC3=C(C2)C(=O)N(Cc2ccc(I)cc2)C2=NCCN23)c1` [I/78]: the IC50 in assay [1] and in assay [2] was over 0.1 µM in each case.

`Nc1cccc(CN2CCC3=C(C2)C(=O)N(Cc2ccc(C(F)(F)F)cc2)C2=NCCN23)c1` [I/79]: the IC50 in assay [1] and in assay [2] was over 0.1 µM throughout.

For `Nc1cccc(CN2CCC3=C(C2)C(=O)N(Cc2ccc(C(F)(F)F)c(F)c2)C2=NCCN23)c1` [I/80], the IC50 in assay [1] and in assay [2] was over 0.1 µM each time.

In the case of `Nc1ccc(CN2CCC3=C(C2)C(=O)N(Cc2ccc(C(F)(F)F)c(F)c2)C2=NCCN23)cc1` [I/82], the IC50 in assay [1] and in assay [2] was over 0.1 µM in each case.

With `Nc1ccc(CN2CCC3=C(C2)C(=O)N(Cc2cccc(F)c2)C2=NCCN23)cc1` [I/83], the IC50 in assay [1] and in assay [2] was over 0.1 µM each time.

Consider `Nc1ccc(CN2CCC3=C(C2)C(=O)N(Cc2ccc(N)cc2)C2=NCCN23)cc1` [I/85], for which the IC50 in assay [1] and in assay [2] was over 0.1 µM throughout.

On to `Nc1ccc(CN2C(=O)C3=C(CCN(Cc4cc(F)cc(F)c4)C3)N3CCN=C23)cc1` [I/88], for which the IC50 in assay [1] and in assay [2] was over 0.1 µM throughout.

As to `O=C1C2=C(CCN(Cc3ccccc3)C2)N2CCN=C2N1CC1CNC1` [I/90], the IC50 in assay [1] and in assay [2] was over 0.1 µM each time.

For `Nc1ccc(CN2CCC3=C(C2)C(=O)N(CC2CNC2)C2=NCCN23)cc1` [I/91], the IC50 in assay [1] and in assay [2] was over 0.1 µM in each case.

In the case of `Cc1ccccc1CN1C(=O)C2=C(CCN(CC3CNC3)C2)N2CCN=C12` [I/92], the IC50 in assay [1] and in assay [2] was over 0.1 µM throughout.

In the case of `Nc1ccc(CN2CCC3=C(C2)C(=O)N(CC2CCNCC2)C2=NCCN23)cc1` [I/93], the IC50 in assay [1] and in assay [2] was over 0.1 µM each time.

Take `Cc1ccccc1CN1C(=O)C2=C(CCN(CC3CCNCC3)C2)N2CCN=C12` [I/94]: the IC50 in assay [1] and in assay [2] was over 0.1 µM in each case.

For `O=C1C2=C(CCN(CC3CCNCC3)C2)N2CCN=C2N1Cc1ccc(F)cc1` [I/95], the IC50 in assay [1] and in assay [2] was over 0.1 µM throughout.
